# Where “and” joins values, the source holds several entries; their conditions need not be identical. Equal entries are not always repeated. Entries after “also recorded” stand apart in the source; their conditions may differ. Where two headings read alike, the source gives them in different places.
# What was measured:
# [1] = test system: SARS-CoV-2 (B1 strain); assay: microbe, parasite or virus in culture; type: cell-based; details: Severe acute respiratory syndrome coronavirus 2; SARS-CoV-2 B1, in a variety of cell types
# [2] = test system: SARS-CoV (FFM1 strain); assay: microbe, parasite or virus in culture; type: cell-based; details: Severe acute respiratory syndrome coronavirus
# [3] = test system: WIV-1; assay: organism not typed; type: cell-based, bat WIV-1
# [4] = test system: HCoV-229E; assay: microbe, parasite or virus in culture; type: cell-based
# [5] = test system: HCoV-229E; assay: microbe, parasite or virus in culture; type: cell-based; details: Human coronavirus 229E
# [6] = test system: HCoV-NL63; assay: HCoV-NL63 CPE reduction assay in LLC-MK2 cells; type: cell-based
# [7] = test system: MERS-CoV; assay: microbe, parasite or virus in culture; type: cell-based; details: Middle East respiratory syndrome-related coronavirus, Huh-7, read-out: Median EC50
# [8] = test system: IBV; assay: microbe, parasite or virus in culture; type: cell-based, infectious bronchitis virus
# [9] = test system: PDCoV; assay: PDCoV antiviral CPE reduction assay in Huh7 cells; type: cell-based, porcine deltacoronavirus
# [10] = biological target: T1, purified recombinant M protein (Severe acute respiratory syndrome coronavirus 2, UniProt P0DTC5); type: binding, SARS-CoV-2; details: 5 µM compound
# T1 construct: SARS-CoV-2 M protein (1–222, UniProt: P0DTC5); ALFA-tag (C); C-tag (EPEA) (C); made in house; host or cells: Expi293F cells (Invitrogen), transient transfection of a pcDNA3.4 construct
# [11] = test system: SARS-CoV-2 B1; type: in vivo, Syrian golden hamster; details: for Histopathology score, average / Histopathology score, median / Infectious virus in the lung (TCID50/mg), average Log 10 / Infectious virus in the lung (TCID50/mg), median Log 10 / Viral load (viral RNA) in the lung, average Log 10 / Viral load (viral RNA) in the lung, median Log 10: n=5; for Histopathology score, individual animal / Infectious virus in the lung (TCID50/mg), Log 10, individual animal / Infectious virus in the lung, individual animal / Viral load (viral RNA) in the lung, Copy number, individual animal / Viral load (viral RNA) in the lung, Log 10, individual animal: listed as 87009676-AAA
# [12] = pre-exposure, 8.33 mg/kg BID, 8.33 mg/kg
# [13] = pre-exposure, 25 mg/kg BID, 25 mg/kg
smiles,measurement,setting,value
"C[C@H]1Cn2ncc(C(=O)Nc3cccc(C#N)c3)c2C(=O)N1c1ccc(C(F)(F)c2ccccc2)cc1 [JNJ-9676, (S)-N-(3-cyanophenyl)-5-(4-(difluoro(phenyl)methyl)phenyl)-6-methyl-4-oxo-4,5,6,7-tetrahydropyrazolo[1,5-a]pyrazine-3-carboxamide]",EC50,[1],0.014 to 0.022 µM
same,EC50,[2]; read-out: Median EC50,0.021 µM
same,EC90,[2]; read-out: Median EC90,0.045 µM
same,EC50,[3],0.004 to 0.006 µM
same,EC50,"[4]; Human coronavirus 229E, Huh-7, read-out: Median EC50",> 30 µM
same,EC90,"[4]; Human coronavirus 229E, Huh-7, read-out: Median EC90",> 30 µM
same,antiviral activity (in words),"[4]; […], cell type not given",no activity
same,EC50,[5]; read-out: Median EC50,> 12.5 µM
same,EC90,[5]; read-out: Median EC90,> 12.5 µM
same,antiviral activity (in words),[6]; HCoV-NL63,no activity
same,EC50,"[6]; Human coronavirus NL63, LLC-MK2, HCoV-NL63 (alphaCoV), N=2, read-out: Median EC50",> 20 µM
same,EC90,"[6]; Human coronavirus NL63, LLC-MK2, HCoV-NL63 (alphaCoV), N=2, read-out: Median EC90",> 20 µM
same,EC50,[7],0.6 µM
same,EC50,"[8]; Avian coronavirus, Huh-7, read-out: Median EC50",8 µM
same,EC90,"[8]; Avian coronavirus, Huh-7, read-out: Median EC90",> 30 µM
same,potency (in words),[8]; gammacoronavirus IBV,single-digit micromolar potency
same,EC50,"[9]; Coronavirus HKU15, Huh-7, Huh7, PDCoV (deltaCoV), N=2, read-out: Median EC50",> 30 µM
same,EC90,"[9]; Coronavirus HKU15, Huh-7, Huh7, PDCoV (deltaCoV), N=2, read-out: Median EC90",> 30 µM
same,antiviral activity (in words),[9]; PDCoV,no activity
same,compound recovery with M-protein:Fab B complex compared to M protein alone or M-protein:Fab E complex,[10],significantly higher
same,compound recovery with M protein relative to buffer-only control,[10]; 5 µM M protein,reproducible JNJ-9676 recovery
same,lowest effective dose,[11]; Syrian golden hamster model,25 mg per kg BID
same,"Histopathology score, average","[11]; pre-exposure, 8.33 mg/kg BID",1.80
same,"Histopathology score, median","[11]; pre-exposure, 8.33 mg/kg BID",2.00
same,"Infectious virus in the lung (TCID50/mg), average Log 10","[11]; pre-exposure, 8.33 mg/kg BID",4.72 Log 10
same,"Infectious virus in the lung (TCID50/mg), median Log 10","[11]; pre-exposure, 8.33 mg/kg BID",4.67 Log 10
same,"Viral load (viral RNA) in the lung, average Log 10","[11]; pre-exposure, 8.33 mg/kg BID",4.56 Log 10
same,"Viral load (viral RNA) in the lung, median Log 10","[11]; pre-exposure, 8.33 mg/kg BID",4.62 Log 10
same,"Histopathology score, individual animal",[11]; [12],2 and 1.5
same,"Infectious virus in the lung (TCID50/mg), Log 10, individual animal",[11]; [12],5.82 Log 10 and 3.86 Log 10 and 4.99 Log 10 and 4.24 Log 10 and 4.67 Log 10
same,"Infectious virus in the lung, individual animal",[11]; [12],662125.31 TCID50/mg and 7237.18 TCID50/mg and 98821.18 TCID50/mg and 17573.17 TCID50/mg and 46447.60 TCID50/mg
same,"Viral load (viral RNA) in the lung, Copy number, individual animal",[11]; [12],2.23E+04 and 1.34E+05 and 8.49E+02 and 4.14E+04 and 6.27E+05
same,"Viral load (viral RNA) in the lung, Log 10, individual animal",[11]; [12],4.35 Log 10 and 5.13 Log 10 and 2.93 Log 10 and 4.62 Log 10 and 5.80 Log 10
same,cumulative histopathological lung score (in words),"[11]; pre-exposure, 25 mg per kg BID",reduced to the baseline; also recorded: significantly reduced
same,reduction of viral load in the lung,"[11]; pre-exposure, 25 mg per kg BID, oral",3.5 log10[RNA copies per mg lung]
same,"Histopathology score, average","[11]; pre-exposure, 25 mg/kg BID",1.40
same,"Histopathology score, median","[11]; pre-exposure, 25 mg/kg BID",1.50
same,"Infectious virus in the lung (TCID50/mg), average Log 10","[11]; pre-exposure, 25 mg/kg BID",0.81 Log 10
same,"Infectious virus in the lung (TCID50/mg), median Log 10","[11]; pre-exposure, 25 mg/kg BID",1.28 Log 10
same,"Viral load (viral RNA) in the lung, average Log 10","[11]; pre-exposure, 25 mg/kg BID",9.46 Log 10
same,"Viral load (viral RNA) in the lung, median Log 10","[11]; pre-exposure, 25 mg/kg BID",9.30 Log 10
same,"Histopathology score, individual animal",[11]; [13],1.5 and 1
same,"Infectious virus in the lung (TCID50/mg), Log 10, individual animal",[11]; [13],-2.00 Log 10 and 4.24 Log 10 and 2.52 Log 10 and 1.28 Log 10
same,"Infectious virus in the lung, individual animal",[11]; [13],0.01 TCID50/mg and 17417.65 TCID50/mg and 328.03 TCID50/mg and 19.08 TCID50/mg
same,"Viral load (viral RNA) in the lung, Copy number, individual animal",[11]; [13],7.91E+09 and 1.46E+09 and 1.22E+09 and 1.99E+09 and 7.25E+09
same,"Viral load (viral RNA) in the lung, Log 10, individual animal",[11]; [13],9.90 Log 10 and 9.16 Log 10 and 9.08 Log 10 and 9.30 Log 10 and 9.86 Log 10
same,cumulative histopathological lung score (in words),"[11]; pre-exposure, 75 mg per kg BID",significantly reduced
same,"Histopathology score, average","[11]; pre-exposure, 75 mg/kg BID",1.20
same,"Histopathology score, median","[11]; pre-exposure, 75 mg/kg BID",1.00
same,"Infectious virus in the lung (TCID50/mg), average Log 10","[11]; pre-exposure, 75 mg/kg BID",1.08 Log 10
same,"Infectious virus in the lung (TCID50/mg), median Log 10","[11]; pre-exposure, 75 mg/kg BID",2.38 Log 10
same,"Viral load (viral RNA) in the lung, average Log 10","[11]; pre-exposure, 75 mg/kg BID",4.57 Log 10
same,"Viral load (viral RNA) in the lung, median Log 10","[11]; pre-exposure, 75 mg/kg BID",3.13 Log 10
same,"Histopathology score, individual animal","[11]; pre-exposure, 75 mg/kg BID, 75 mg/kg",1 and 1.5

# Reference: paper PMC11981937 (Nature, 2025)
